Measurements taken from patent publication US10981926B2 (Janssen Pharmaceutica NV, priority 2016, dated 2021).

What was measured:
[1] = biological target: T1, wild-type Androgen Receptor (AR-wt) (Homo sapiens (Human), UniProt P10275); test: LNCaP-AR-wt ANT reporter assay (antagonist mode); type: cell-based; conditions: for LNCaP-AR-wt ANT pIC50 / IC50: antagonist mode, pIC50 = −Log10(IC50 in Molar); for Emax: read-out: LNCaP-AR-wt ANT MAX % Inh; for IC50: read-out: LNCaP-AR-wt ANT pIC50 (converted)
T1 sequence (P10275 whole entry): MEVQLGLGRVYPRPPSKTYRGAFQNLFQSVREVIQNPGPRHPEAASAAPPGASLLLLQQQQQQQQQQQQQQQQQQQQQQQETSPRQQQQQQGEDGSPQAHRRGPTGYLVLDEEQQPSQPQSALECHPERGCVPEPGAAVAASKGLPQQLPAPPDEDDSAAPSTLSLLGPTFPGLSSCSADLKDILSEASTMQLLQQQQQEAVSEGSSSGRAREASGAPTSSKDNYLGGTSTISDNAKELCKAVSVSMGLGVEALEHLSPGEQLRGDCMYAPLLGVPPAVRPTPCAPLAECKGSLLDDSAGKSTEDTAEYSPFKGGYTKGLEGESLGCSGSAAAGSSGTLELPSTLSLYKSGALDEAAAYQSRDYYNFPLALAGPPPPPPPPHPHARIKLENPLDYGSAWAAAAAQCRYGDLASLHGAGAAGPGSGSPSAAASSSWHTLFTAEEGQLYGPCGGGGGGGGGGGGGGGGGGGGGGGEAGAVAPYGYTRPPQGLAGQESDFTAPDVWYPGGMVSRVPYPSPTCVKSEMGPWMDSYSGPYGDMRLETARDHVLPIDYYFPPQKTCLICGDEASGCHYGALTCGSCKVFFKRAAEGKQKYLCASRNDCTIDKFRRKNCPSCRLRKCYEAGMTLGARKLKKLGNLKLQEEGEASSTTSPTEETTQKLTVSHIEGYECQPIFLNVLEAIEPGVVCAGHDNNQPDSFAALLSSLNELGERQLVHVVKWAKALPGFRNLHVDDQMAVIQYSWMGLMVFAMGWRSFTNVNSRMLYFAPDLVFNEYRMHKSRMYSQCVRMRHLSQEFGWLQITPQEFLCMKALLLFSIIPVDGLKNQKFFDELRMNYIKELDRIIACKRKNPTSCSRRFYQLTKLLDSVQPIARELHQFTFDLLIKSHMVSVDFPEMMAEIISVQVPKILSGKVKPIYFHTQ

[2] = biological target: T1, wild-type Androgen Receptor (AR-wt); test: LNCaP-AR-wt AG reporter assay (agonist mode); type: cell-based; conditions: for EC50 / LNCaP-AR-wt AG pEC50: agonist mode, pEC50 = −Log10(EC50 in Molar); for EC50: read-out: LNCaP-AR-wt AG pEC50 (converted); for Emax: read-out: LNCaP-AR-wt AG MAX % Stim
[3] = biological target: T2, F876L mutant Androgen Receptor (AR-F876L) (Homo sapiens (Human), UniProt P10275, F877L); test: LNCaP-AR-F876L ANT reporter assay (antagonist mode); type: cell-based; conditions: for LNCaP-AR-F876L ANT pIC50 / IC50: antagonist mode, pIC50 = −Log10(IC50 in Molar); for Emax: read-out: LNCaP-AR-F876L ANT MAX % Inh; for IC50: read-out: LNCaP-AR-F876L ANT pIC50 (converted)
T2 sequence (P10275 whole entry F877L): as the sequence (P10275 whole entry) above, with F877L counted along it

[4] = system: rGABA-gated Cl− channel; test: GABA-Gated Cl Channel Antagonist Radioligand Binding Assay; design: species or system rat; conditions: 10 μM single point, [35S]-TBPS, cerebral cortex membrane homogenates
Procedure: GABA-gated C1 Chanel assays were performed at CEREP according to the following method. Membrane homogenates of cerebral cortex (120 μg protein) were incubated for 120 min at 22° C. with 3 nM […] in the absence or presence of the test compound in a buffer containing 50 mM Na2HPO4/KH2PO4 (pH 7.4) and 500 mM NaCl. Nonspecific binding was determined in the presence of 20 μM picrotoxinin. Following incubation, the samples were filtered rapidly under vacuum through glass fiber filters (GF/B, Packard) presoaked with 0.3% PEI and rinsed several times with ice-cold 50 mM Tris-HCl using a 96-sample cell harvester (Unifilter, Packard). The filters were dried then counted for radioactivity in a scintillation counter (Topcount, Packard) using a scintillation cocktail (Microscint 0, Packard). The results are expressed as a percent inhibition of the control radio ligand specific binding. The standard reference compound is picrotoxinin, which was tested in each experiment at several concentrations to obtain a competition curve from which its IC50 was calculated. In this assay, the following representative compounds disclosed herein had recorded activities at a 10 μM single point concentration in the GABA-gated Cl— Channel Binding Assay.

[5] = biological target: T2, F876L mutant Androgen Receptor (AR-F876L); test: LNCaP-AR-F876L AG reporter assay (agonist mode); type: cell-based; conditions: for EC50 / LNCaP-AR-F876L AG pEC50: agonist mode, pEC50 = −Log10(EC50 in Molar); for EC50: read-out: LNCaP-AR-F876L AG pEC50 (converted); for Emax: read-out: LNCaP-AR-F876L AG MAX % Stim
[6] = maximum % inhibition of R1881 control response over the tested concentration range
[7] = maximum % stimulation (agonist response) over the tested concentration range

Row | SMILES | LNCaP-AR-wt ANT pIC50 [1] | Emax [1, 6] [%] | EC50 [2] [nM] | Emax [2, 7] [%] | LNCaP-AR-F876L ANT pIC50 [3] | Emax [3, 6] [%] | rGABA-gated Cl− channel % inh @10 μM [4] [%] | EC50 [5] [nM] | Emax [5, 7] [%] | IC50 [1] [nM] | IC50 [3] [nM] | LNCaP-AR-wt ANT MAX % Inh [1, 6] [%] | LNCaP-AR-wt AG MAX % Stim [2, 7] [%] | LNCaP-AR-F876L ANT MAX % Inh [3, 6] [%] | LNCaP-AR-F876L AG MAX % Stim [5, 7] [%] | LNCaP-AR-wt AG pEC50 [2] | LNCaP-AR-F876L AG pEC50 [5]
1 | COc1cc(N2C(=O)C3(CCC3)N(c3ccc(OC4CCN(C)CC4)cc3)C2=S)cnc1C#N [Cpd 23, 3-methoxy-5-[8-[4-[(1-methyl-4-piperidyl)oxy]phenyl]-5-oxo-7-thioxo-6,8-diazaspiro[3.4]octan-6-yl]pyridine-2-carbonitrile] | 6.52 | 102 | > 15100 | 0.4 | 6.67 | 101 | 4.8 | > 15100 | 0.4 | – | – | – | – | – | – | – | –
2 | N#Cc1ncc(N2C(=O)C3(CCC3)N(c3ccc(O[C@H]4C[C@H]5CC[C@@H](C4)N5)cc3)C2=S)cc1C(F)(F)F [Cpd 29, 5-[8-[4-[[(1R,3r, 5S)-8-azabicyclo[3.2.1]octan-3-yl]oxy]phenyl]-5-oxo-7-thioxo-6,8-diazaspiro[3.4]octan-6-yl]-3-(trifluoromethyl)pyridine-2-carbonitrile] | 6.05 | 91.5 | – | 1.5 | 6.40 | 101 | 39.9 | – | 3.4 | – | – | – | – | – | – | <4.82 | <4.82
3 | N#Cc1ncc(N2C(=O)C3(CCC3)N(c3ccc(OC4CCCNCC4)cc3)C2=S)cc1C(F)(F)F (stereo not drawn) [Cpd 30, 5-[8-[4-(azepan-4-yloxy)phenyl]-5-oxo-7-thioxo-6,8-diazaspiro[3.4]octan-6-yl]-3-(trifluoromethyl)pyridine-2-carbonitrile] | – | – | – | – | – | – | 53.6 | – | – | 708 | 91.2 | 99.7 | 0.3 | 100.6 | 0.3 | <4.82 | <4.82
4 | CCOC(=O)N1CCN(C(=O)c2ccc(N3C(=S)N(c4cnc(C#N)c(C(F)(F)F)c4)C(=O)C34CCC4)cc2)CC1 [Cpd 31, ethyl 4-[4-[6-[6-cyano-5-(trifluoromethyl)-3-pyridyl]-5-oxo-7-thioxo-6,8-diazaspiro[3.4]octan-8-yl]benzoyl]piperazine-1-carboxylate] | – | 80.3 | > 15100 | 0.3 | – | 87.1 | 79.0 | > 15100 | 0.1 | 1290 | 617 | – | – | – | – | – | –
5 | COC(=O)CN1CCC(Oc2ccc(N3C(=S)N(c4cnc(C#N)c(C(F)(F)F)c4)C(=O)C34CCC4)cc2)CC1 [Cpd 33, methyl 2-[4-[4-[6-[6-cyano-5-(trifluoromethyl)-3-pyridyl]-5-oxo-7-thioxo-6,8-diazaspiro[3.4]octan-8-yl]phenoxy]-1-piperidyl]acetate] | – | 98.9 | > 15100 | 0.2 | – | 98.2 | 99.2 | > 15100 | 2.8 | 708 | 389 | – | – | – | – | – | –
6 | Cc1cc(N2C(=O)C3(CCC3)N(c3ccc(OC4CCN(C5CC5)CC4)cc3)C2=S)cnc1C#N [Cpd 35, 5-[8-[4-[(1-cyclopropyl-4-piperidyl)oxy]phenyl]-5-oxo-7-thioxo-6,8-diazaspiro[3.4]octan-6-yl]-3-methyl-pyridine-2-carbonitrile] | – | 100 | > 15100 | 0.2 | – | 99.5 | 49.9 | > 15100 | 0.3 | 912 | 372 | – | – | – | – | – | –
7 | N#CCN1CCC(Oc2ccc(N3C(=S)N(c4cnc(C#N)c(C(F)(F)F)c4)C(=O)C34CCC4)cc2)CC1 [Cpd 39, 5-[8-[4-[[1-(cyanomethyl)-4-piperidyl]oxy]phenyl]-5-oxo-7-thioxo-6,8-diazaspiro[3.4]octan-6-yl]-3-(trifluoromethyl)pyridine-2-carbonitrile] | – | 100 | > 15100 | 0.9 | – | 101 | 86.2 | > 15100 | -0.1 | 676 | 245 | – | – | – | – | – | –

Second part, led by results:

Row | LNCaP-AR-wt ANT pIC50 [1] | Emax [1, 6] [%] | EC50 [2] [nM] | Emax [2, 7] [%] | LNCaP-AR-F876L ANT pIC50 [3] | Emax [3, 6] [%] | rGABA-gated Cl− channel % inh @10 μM [4] [%] | EC50 [5] [nM] | Emax [5, 7] [%] | IC50 [1] [nM] | IC50 [3] [nM] | LNCaP-AR-wt ANT MAX % Inh [1, 6] [%] | LNCaP-AR-wt AG MAX % Stim [2, 7] [%] | LNCaP-AR-F876L ANT MAX % Inh [3, 6] [%] | LNCaP-AR-F876L AG MAX % Stim [5, 7] [%] | SMILES | LNCaP-AR-wt AG pEC50 [2] | LNCaP-AR-F876L AG pEC50 [5]
8 | 6.94 | 101 | > 15100 | -0.1 | 7.07 | 101 | 6.3 | > 15100 | 0.1 | – | – | – | – | – | – | CN1CCC(Oc2ccc(N3C(=S)N(c4cnc(C#N)c(C(F)(F)F)c4)C(=O)C34CCC4)cn2)CC1 [Cpd 1, 5-[8-[6-[(1-methyl-4-piperidyl)oxy]-3-pyridyl]-5-oxo-7-thioxo-6,8-diazaspiro[3.4]octan-6-yl]-3-(trifluoromethyl)pyridine-2-carbonitrile] | – | –
9 | – | 101 | > 15100 | 0.5 | – | 99.9 | 1.6 | > 15100 | 0.2 | 245 | 123 | – | – | – | – | Cc1cc(N2C(=O)C3(CCC3)N(c3ccc(OC4CCN(C)CC4)nc3)C2=S)cnc1C#N [Cpd 2, 3-methyl-5-[8-[6-[(1-methyl-4-piperidyl)oxy]-3-pyridyl]-5-oxo-7-thioxo-6,8-diazaspiro[3.4]octan-6-yl]pyridine-2-carbonitrile] | – | –
10 | – | 101 | > 15100 | 0.6 | – | 101 | 25.4 | > 15100 | 0.5 | 170 | 83.2 | – | – | – | – | CN1CCC(Oc2ccc(N3C(=S)N(c4cnc(C#N)c(Cl)c4)C(=O)C34CCC4)cc2)CC1 [Cpd 24, 3-chloro-5-[8-[4-[(1-methyl-4-piperidyl)oxy]phenyl]-5-oxo-7-thioxo-6,8-diazaspiro[3.4]octan-6-yl]pyridine-2-carbonitrile] | – | –
11 | – | 82.7 | > 15100 | -0.4 | – | 89.7 | 91.2 | > 15100 | 0.2 | 3310 | 1260 | – | – | – | – | CC(C)(C)CCN1CCC(Oc2ccc(N3C(=S)N(c4cnc(C#N)c(C(F)(F)F)c4)C(=O)C34CCC4)cc2)CC1 [Cpd 34, 5-(5-(4-((1-(3,3-dimethylbutyl)piperidin-4-yl)oxy)phenyl)-8-oxo-6-thioxo-5,7-diazaspiro[3.4]octan-7-yl)-3-(trifluoromethyl)picolinonitrile] | – | –
12 | – | 100 | > 15100 | -0.2 | – | 99.1 | 96.2 | > 15100 | 1 | 759 | 631 | – | – | – | – | N#Cc1ncc(N2C(=O)C3(CCC3)N(c3ccc(OC4CCN(C5CC5)CC4)cc3)C2=S)cc1C(F)(F)F [Cpd 36, 5-[8-[4-[(1-cyclopropyl-4-piperidyl)oxy]phenyl]-5-oxo-7-thioxo-6,8-diazaspiro[3.4]octan-6-yl]-3-(trifluoromethyl)pyridine-2-carbonitrile] | – | –
13 | – | 99.8 | > 15100 | 0.1 | – | 99.5 | 18.8 | > 15100 | 0 | 1260 | 407 | – | – | – | – | COCCN1CCC(Oc2ccc(N3C(=S)N(c4cnc(C#N)c(C)c4)C(=O)C34CCC4)cc2)CC1 [Cpd 37, 5-[8-[4-[[1-(2-methoxyethyl)-4-piperidyl]oxy]phenyl]-5-oxo-7-thioxo-6,8-diazaspiro[3.4]octan-6-yl]-3-methyl-pyridine-2-carbonitrile] | – | –
14 | – | 101 | > 15100 | 0 | – | 99.9 | 69.2 | > 15100 | 0.3 | 708 | 324 | – | – | – | – | COCCN1CCC(Oc2ccc(N3C(=S)N(c4cnc(C#N)c(C(F)(F)F)c4)C(=O)C34CCC4)cc2)CC1 [Cpd 38, 5-[8-[4-[[1-(2-methoxyethyl)-4-piperidyl]oxy]phenyl]-5-oxo-7-thioxo-6,8-diazaspiro[3.4]octan-6-yl]-3-(trifluoromethyl)pyridine-2-carbonitrile] | – | –
